Converted amounts (≈) assume the structure as drawn. Where two headings read alike, the source gives them in different places. A value given as a limit tells only on which side of the number the result lay.

The source of these data is patent publication US7053234B2 (Amgen Inc., priority 2000, dated 2006).

In test [1] the target is T1, Sigma^70 saturated E. coli RNA Polymerase (Escherichia coli, UniProt P0A8T7+P0A8V2).
T1 construct: purchased Epicenter
The test is described as follows: RNA polymerase inhibition assay (E. coli enzyme). The settings on record: Table 2; read-out: RNA-pol IC50 (μM) E. coli. Format: biochemical. How it is done: The compounds of the present invention can be evaluated for antibacterial activity in a variety of assay formats known to those of skill in art. The specific assays used to select the most appropriate compound for use will typically depend on the targeted bacteria or infection. One common assay involves evaluation of the compounds as RNA polymerase inhibitors. In this assay, buffer (250 mM KCl, 5% Glycerol, 10 mM MgCl2, 0.1 mg/ml BSA) is combined with 6 mM B-M.E., PT5 DNA template, and 1.3 ug/rxn Sigma^70 saturated E. coli RNA Polymerase (Epicenter). The compound is then added in a manner not to exceed 5% DMSO. Nucleotide triphosphates are then added at the following concentration: 250 uM ATP, […] and UTP with 100 uM cold CTP and 50 uM alpha ^32P CTP. The mixture is incubated for 10 min at about 37° C. A [2×] loading buffer is added and the mixture is then run on a 6% urea denaturing PAGE until bromophenol blue reaches the edge of plate. The gel is soaked (about 20 minutes in 10% MeOH and 10% acetic acid, to remove urea), then dried (about 55 minutes at about 85° C. (BioRad Gel Drier)) and exposed to a Phospho Imaging Plate for 1 hour. The plate is then read on a Fujix Bas1000 Imaging System and quantified using MacBas v2.0 software. An IC50 (in uM) can be calculated as the concentration of a drug which reduces the enzyme activity to 50% of the control.

Test [2] concerns the target RNA-pol S. aureus (Staphylococcus aureus, UniProt P47768+Q2G0N5). Briefly: RNA polymerase inhibition assay (S. aureus enzyme). Format: biochemical.
Test [3] concerns S. aureus. Briefly: MIC determination, S. aureus. Format: cell-based. The settings on record: Staphylococcus aureus, read-out: MIC (μM) S. aureus. As to the method: The compound is added and two-fold dilutions are made. The final volume in the 96-well plate is about 100 uL. The plate is incubated at 37° C. in the dark with shaking. After 16 hours of incubation, growth is monitored by reading A600 or by visual inspection. […] Methods for dilution antimicrobial susceptibility tests for bacteria that grow aerobically. Approved standard M7-A3; National Committee for Clinical Laboratory Standards: Villanova, Pa.

The subject of test [4] is E. coli (tolC). Briefly: MIC determination, E. coli (tolC). Format: cell-based. The settings on record: Escherichia coli, read-out: MIC (μM) E. coli (tolC). As to the method: For MIC determinations for selected bacteria, log phase growing bacteria are re-suspended at 1×10^5 bacteria per mL in LB medium. The compound is added and two-fold dilutions are made. The final volume in the 96-well plate is about 100 uL. The plate is incubated at 37° C. in the dark with shaking. After 16 hours of incubation, growth is monitored by reading A600 or by visual inspection. MIC is defined as the minimum concentration of drug resulting in inhibition of visible growth of bacterial under the conditions described (above) in National Committee for Clinical Laboratory Standards 1993. Methods for dilution antimicrobial susceptibility tests for bacteria that grow aerobically. Approved standard M7-A3; National Committee for Clinical Laboratory Standards: Villanova, Pa.

Where [5] appears, read: Table 2, read-out: RNA-pol IC50 (μM) S. aureus.

Sequence of RNA-pol S. aureus (Q2G0N5 whole entry): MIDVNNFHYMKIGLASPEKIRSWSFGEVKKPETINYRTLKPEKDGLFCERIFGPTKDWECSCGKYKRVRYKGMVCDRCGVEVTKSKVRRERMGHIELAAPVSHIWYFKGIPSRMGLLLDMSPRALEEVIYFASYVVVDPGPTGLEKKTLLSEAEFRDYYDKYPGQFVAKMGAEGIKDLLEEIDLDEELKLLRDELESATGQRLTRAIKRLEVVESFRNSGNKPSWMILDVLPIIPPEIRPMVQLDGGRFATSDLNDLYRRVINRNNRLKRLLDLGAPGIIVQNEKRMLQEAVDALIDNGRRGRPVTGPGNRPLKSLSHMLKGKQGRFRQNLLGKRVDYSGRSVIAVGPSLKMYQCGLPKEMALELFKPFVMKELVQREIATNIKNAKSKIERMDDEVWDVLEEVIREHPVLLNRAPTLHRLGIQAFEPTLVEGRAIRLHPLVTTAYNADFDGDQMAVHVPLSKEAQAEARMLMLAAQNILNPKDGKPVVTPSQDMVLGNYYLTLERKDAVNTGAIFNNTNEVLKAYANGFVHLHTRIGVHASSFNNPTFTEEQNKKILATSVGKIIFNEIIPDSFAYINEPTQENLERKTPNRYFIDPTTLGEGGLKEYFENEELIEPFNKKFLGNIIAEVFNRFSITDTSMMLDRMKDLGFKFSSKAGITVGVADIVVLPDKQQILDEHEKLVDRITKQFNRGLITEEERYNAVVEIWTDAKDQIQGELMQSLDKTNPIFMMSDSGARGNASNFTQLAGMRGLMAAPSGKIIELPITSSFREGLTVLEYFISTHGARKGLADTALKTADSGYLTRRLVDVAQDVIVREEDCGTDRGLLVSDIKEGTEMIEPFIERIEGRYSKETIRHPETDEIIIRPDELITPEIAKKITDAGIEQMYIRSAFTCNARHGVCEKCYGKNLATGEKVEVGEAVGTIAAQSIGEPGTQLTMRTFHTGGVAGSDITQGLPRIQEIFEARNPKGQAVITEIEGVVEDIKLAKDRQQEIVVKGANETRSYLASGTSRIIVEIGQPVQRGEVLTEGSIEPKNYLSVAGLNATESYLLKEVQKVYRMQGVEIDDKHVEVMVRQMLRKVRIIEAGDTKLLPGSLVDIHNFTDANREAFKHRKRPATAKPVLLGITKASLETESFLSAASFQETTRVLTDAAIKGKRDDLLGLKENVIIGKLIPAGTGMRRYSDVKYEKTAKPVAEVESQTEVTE
Sequence of RNA-pol S. aureus (Q2FW32 whole entry, further chain): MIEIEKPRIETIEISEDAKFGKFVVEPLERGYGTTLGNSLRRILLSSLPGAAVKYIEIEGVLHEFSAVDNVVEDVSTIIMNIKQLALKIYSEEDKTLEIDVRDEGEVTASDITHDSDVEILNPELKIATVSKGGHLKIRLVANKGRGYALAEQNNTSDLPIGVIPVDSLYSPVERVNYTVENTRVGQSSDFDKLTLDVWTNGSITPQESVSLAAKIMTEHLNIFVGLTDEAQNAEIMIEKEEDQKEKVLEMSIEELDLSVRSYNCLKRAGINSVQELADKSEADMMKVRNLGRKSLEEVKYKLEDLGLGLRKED
Sequence of RNA-pol S. aureus (P47768 whole entry): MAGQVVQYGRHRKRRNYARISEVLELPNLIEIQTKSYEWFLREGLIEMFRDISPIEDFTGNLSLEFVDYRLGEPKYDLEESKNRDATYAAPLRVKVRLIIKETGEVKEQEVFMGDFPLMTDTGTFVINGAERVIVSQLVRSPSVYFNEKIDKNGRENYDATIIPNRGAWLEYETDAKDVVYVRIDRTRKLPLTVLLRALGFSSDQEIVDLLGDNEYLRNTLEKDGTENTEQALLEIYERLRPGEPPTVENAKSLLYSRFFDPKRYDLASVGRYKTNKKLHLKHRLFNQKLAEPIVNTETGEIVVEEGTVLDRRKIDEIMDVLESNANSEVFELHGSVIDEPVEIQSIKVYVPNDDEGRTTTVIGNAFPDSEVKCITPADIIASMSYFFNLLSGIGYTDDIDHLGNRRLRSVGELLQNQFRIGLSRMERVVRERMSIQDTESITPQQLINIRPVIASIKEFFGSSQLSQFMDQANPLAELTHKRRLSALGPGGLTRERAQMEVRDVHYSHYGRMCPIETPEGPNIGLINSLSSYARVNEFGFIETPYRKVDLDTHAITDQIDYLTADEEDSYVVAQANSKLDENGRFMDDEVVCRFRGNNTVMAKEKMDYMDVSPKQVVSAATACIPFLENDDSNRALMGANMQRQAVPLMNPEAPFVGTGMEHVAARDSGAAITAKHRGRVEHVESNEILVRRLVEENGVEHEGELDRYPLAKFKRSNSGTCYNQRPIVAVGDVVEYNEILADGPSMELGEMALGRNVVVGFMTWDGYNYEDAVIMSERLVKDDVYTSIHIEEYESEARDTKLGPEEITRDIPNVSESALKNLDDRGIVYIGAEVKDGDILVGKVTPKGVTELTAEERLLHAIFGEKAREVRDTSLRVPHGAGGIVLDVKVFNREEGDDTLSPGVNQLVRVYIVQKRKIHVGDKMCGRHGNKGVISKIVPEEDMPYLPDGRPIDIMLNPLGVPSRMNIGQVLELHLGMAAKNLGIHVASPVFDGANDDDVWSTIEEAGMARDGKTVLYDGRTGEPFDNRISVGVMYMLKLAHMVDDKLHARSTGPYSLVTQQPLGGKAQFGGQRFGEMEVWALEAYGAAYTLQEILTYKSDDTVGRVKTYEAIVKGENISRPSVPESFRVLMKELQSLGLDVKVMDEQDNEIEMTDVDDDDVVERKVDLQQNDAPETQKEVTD

On to `ON=C1CCN(c2ccc(C(=NO)Nc3cccc(Cl)c3)cc2C(F)(F)F)C1` [Compound 109], for which the IC50 (in general, the concentration needed to halve the response being measured) in test [1] was 10 to 50 µM; in test [2], above 50 µM. Also, the MIC in test [3] (Table 2) and in test [4] was below 40 µM each time.
As to `CON=C1CCN(c2ccc(C(=NO)Nc3cccc(Cl)c3)cc2C(F)(F)F)C1` [Compound 110], the concentration for half-maximal inhibition (IC50) in test [1] and in test [2] was above 50 µM in each case. Further, the MIC (commonly the least concentration at which growth counts as inhibited) is 40 to 125 µM (≈ 17.1 to 53.4 µg/mL) in test [3] (Table 2) and above 125 µM in test [4].
As to `OCCNc1ccc(C(=NO)Nc2cccc(Cl)c2)cc1C(F)(F)F` [Compound 111], the IC50 in test [1] was 10 to 50 µM. The MIC in test [3] (Table 2) was above 125 µM; in test [4] it was below 40 µM.
For `ON=C(Nc1cccc(Cl)c1)c1ccc(NCCN2CCNCC2)c(C(F)(F)F)c1` [Compound 112], the IC50 in test [1] was 10 to 50 µM; in test [2], above 50 µM. In addition, the minimal inhibitory concentration (MIC) was above 125 µM in test [3] (Table 2) and below 40 µM in test [4].
In the case of `ON=C(Nc1cccc(Cl)c1)c1ccc(NCCc2ccc(O)cc2)c(C(F)(F)F)c1` [Compound 113], the IC50 in test [1] is 10 to 50 µM. The minimal inhibitory concentration (MIC) in test [3] (Table 2) and in test [4] was below 40 µM in each case.
Consider `NS(=O)(=O)c1ccc(CCNc2ccc(C(=NO)Nc3cccc(Cl)c3)cc2C(F)(F)F)cc1` [Compound 114], for which the IC50 is below 10 µM in test [1] and above 50 µM in test [2]. Further, the minimal inhibitory concentration (MIC) in test [3] (Table 2) and in test [4] was below 40 µM in each case.
Consider `[N-]=[N+]=Nc1cc(/C(=N/O)Nc2cccc(Cl)c2)cc(C(F)(F)F)c1F` [Compound 115], for which the IC50 in test [1] and in test [2] (setting [5]) was above 50 µM in each case. Further, the MIC in test [3] (Table 2) and in test [4] was below 40 µM throughout.
For `Nc1cc(/C(=N/O)Nc2cccc(Cl)c2)cc(C(F)(F)F)c1F` [Compound 116], the IC50 was below 10 µM in test [1] and above 50 µM in test [2] (setting [5]). The MIC in test [3] (Table 2) and in test [4] was below 40 µM each time.
For the compound `Nc1cc(NC(=O)Nc2ccc(Cl)c(C(F)(F)F)c2)cc(C(F)(F)F)c1` [Compound 118], the 50% inhibitory concentration (IC50) in test [2] (setting [5]) was above 50 µM. The MIC in test [3] (Table 2) and in test [4] was below 40 µM in each case.
Regarding `C=CCOC(=O)Nc1cc(NC(=O)Nc2ccc(Cl)c(C(F)(F)F)c2)cc(C(F)(F)F)c1` [Compound 119], the minimal inhibitory concentration (MIC) in test [3] (Table 2) and in test [4] was below 40 µM throughout.
Take `O=C(CSc1ccccc1)Nc1cc(NC(=O)Nc2ccc(Cl)c(C(F)(F)F)c2)cc(C(F)(F)F)c1` [Compound 120]: the IC50 is above 50 µM in test [1] and 10 to 50 µM in test [2] (setting [5]). Also, the MIC in test [3] (Table 2) and in test [4] was below 40 µM in each case.
In the case of `O=C(COc1ccc(Cl)cc1)Nc1cc(NC(=O)Nc2ccc(Cl)c(C(F)(F)F)c2)cc(C(F)(F)F)c1` [Compound 121], in test [2] (setting [5]), the half-inhibitory concentration (IC50) is above 50 µM. Moreover, the MIC in test [3] (Table 2) is below 40 µM; in test [4], above 125 µM.
Regarding `O=C(Nc1cc(NS(=O)(=O)c2ccc(C(F)(F)F)cc2)cc(C(F)(F)F)c1)Nc1ccc(Cl)c(C(F)(F)F)c1` [Compound 122], the half-maximal inhibitory concentration (IC50) in test [2] (setting [5]) is 10 to 50 µM. For the same compound, the MIC in test [3] (Table 2) is below 40 µM; in test [4], above 125 µM.
On the same counts, the results for `O=C(Nc1cc(N2CCCC2)cc(C(F)(F)F)c1)Nc1ccc(Cl)c(C(F)(F)F)c1` [Compound 123] are below 10 µM, below 40 µM and above 125 µM.
On the same counts, the results for `COCC1CCCN1c1cc(NC(=O)Nc2ccc(Cl)c(C(F)(F)F)c2)cc(C(F)(F)F)c1` (stereo not shown) [Compound 124] are 10 to 50 µM, below 40 µM and above 125 µM.
For `O=C(Nc1cc(N2CCOCC2)cc(C(F)(F)F)c1)Nc1ccc(Cl)c(C(F)(F)F)c1` [Compound 125], in that order: 10 to 50 µM, below 40 µM and below 40 µM.
Turning to `O=C(Nc1cc(N2CCOC2=O)cc(C(F)(F)F)c1)Nc1ccc(Cl)c(C(F)(F)F)c1` [Compound 126], the IC50 in test [2] (setting [5]) is below 10 µM. Also, the MIC is above 125 µM in test [3] (Table 2) and below 40 µM in test [4].
For `O=C(Nc1cc(N2CCNC2=O)cc(C(F)(F)F)c1)Nc1ccc(Cl)c(C(F)(F)F)c1` [Compound 127], in that order: 10 to 50 µM, above 125 µM and above 125 µM.
Take `COc1cc(NC(=O)CNc2ccc(Cl)c(C(F)(F)F)c2)cc(C(F)(F)F)c1` [Compound 128]: the IC50 in test [2] (setting [5]) was above 50 µM. The MIC in test [3] (Table 2) and in test [4] was below 40 µM each time.
With `COCC1CCCN1c1cc(NC(=O)CNc2ccc(Cl)c(C(F)(F)F)c2)cc(C(F)(F)F)c1` (stereo not shown) [Compound 129], the IC50 in test [2] (setting [5]) is above 50 µM. Moreover, the MIC was below 40 µM in test [3] (Table 2) and above 125 µM in test [4].
On the same counts, the results for `O=C(CNc1ccc(Cl)c(C(F)(F)F)c1)Nc1cc(NC(=O)COc2ccc(Cl)cc2)cc(C(F)(F)F)c1` [Compound 130] are above 50 µM, below 40 µM and above 125 µM.
For `O=C(COc1ccc(Cl)cc1)Nc1cc(NCCNc2nc3cc(Cl)c(Cl)cc3[nH]2)cc(C(F)(F)F)c1` [Compound 131], in that order: below 10 µM, below 40 µM and above 125 µM.
For the compound `COCOc1cc(NC(=O)Nc2ccc(Cl)c(C(F)(F)F)c2)cc(C(F)(F)F)c1` [Compound 132, 1-(4-Chloro-3-trifluoromethyl-phenyl)-3-(3-methoxymethoxy-5-trifluoromethyl-phenyl)-urea], in test [2] (setting [5]), the half-maximal inhibitory concentration (IC50) lay within 10 to 50 µM. The MIC in test [3] (Table 2) and in test [4] was below 40 µM in each case.
In the case of `O=C(Nc1cc(O)cc(C(F)(F)F)c1)Nc1ccc(Cl)c(C(F)(F)F)c1` [Compound 133, 1-(4-Chloro-3-trifluoromethyl-phenyl)-3-(3-hydroxy-5-trifluoromethyl-phenyl)-urea], the IC50 in test [2] (setting [5]) fell in the range of 10 to 50 µM. Further, the MIC in test [3] (Table 2) and in test [4] was below 40 µM in each case.
Turning to `C=CCOc1cc(NC(=O)Nc2ccc(Cl)c(C(F)(F)F)c2)cc(C(F)(F)F)c1` [Compound 134], the IC50 in test [2] (setting [5]) was below 10 µM. The minimal inhibitory concentration (MIC) in test [3] is below 40 µM; in test [4] it was above 125 µM.
`O=C(Nc1cc(OCc2cccc(Cl)c2)cc(C(F)(F)F)c1)Nc1ccc(Cl)c(C(F)(F)F)c1` [Compound 135]: the IC50 in test [2] (setting [5]) fell in the range of 10 to 50 µM. Besides, the MIC in test [4] is above 125 µM.
Regarding `O=C(CNc1ccc(N2CCCCC2)c(C(F)(F)F)c1)Nc1cc(COc2cccc(Cl)c2)cc(C(F)(F)F)c1` [Compound 136, N-[3-(3-Chloro-phenoxymethyl)-5-trifluoromethyl-phenyl]-2-(4-piperidin-1-yl-3-trifluoromethyl-phenylamino)-acetamide], the IC50 in test [2] (setting [5]) is below 10 µM. The MIC is below 40 µM in test [3] (Table 2) and above 125 µM in test [4].
As to `O=C(Nc1ccc(Cl)c(C(F)(F)F)c1)OCc1cc(-n2cccc2)cc(C(F)(F)F)c1` [Compound 137], the IC50 in test [2] (setting [5]) was in the range of 10 to 50 µM. Further, the MIC in test [3] (Table 2) and in test [4] was below 40 µM throughout.
Take `O=C(CSc1ccccc1)Nc1cc(COC(=O)Nc2ccc(Cl)c(C(F)(F)F)c2)cc(C(F)(F)F)c1` [Compound 139, (4-Chloro-3-trifluoromethyl-phenyl)-carbamic acid 3-(2-phenylsulfanyl-acetylamino)-5-trifluoromethyl benzyl ester]: the half-inhibitory concentration (IC50) in test [2] (setting [5]) lay within 10 to 50 µM. Also, the minimal inhibitory concentration (MIC) in test [3] (Table 2) and in test [4] was below 40 µM in each case.
On to `O=C(CNc1cccc(Cl)c1)Nc1cc(NC(=O)CNc2cccc(Cl)c2)cc(C(F)(F)F)c1` [Compound 140, 2-(3-Chloro-phenylamino)-N-{3-[2-(3-chloro-phenylamino)-acetylamino]-5-trifluoromethyl-phenyl}acetamide], for which the values for the MIC in test [3] (Table 2) and in test [4] were below 40 µM and above 125 µM, respectively.
